According to patent US10875874B2, “Ginkgolide B derivative and preparation method and use thereof” (Chengdu Baiyu Ginkgolide Pharmaceuticals Co., Ltd., priority 2015, dated 2020):
Marks after values point to notes of the source that are not given here.

Legend:
Format in all cases: in vivo, rat
[1] = Weekly food intake of SHR rats
Procedure: (§1) 2.1 Grouping and administration of animals: 112 SHR rats (the female and male SHR rats are half and half, and the female rats are not pregnant) with the body weight of 200-250 g are taken, the rats are enabled to adapt to a laboratory for a period of 5 d, blood pressure is measured once at a day to enable the rats to adapt to the environment and detect stimulation. Then, weighing and numbering are carried out, and the SHR rats are equally divided into 14 groups randomly (each group comprises 8 rats), i.e., an SHR rat model control group, a positive control group (captopril, 27 mg/kg), a BZ large-dose group (120 mg/kg/d), a BZ small-dose group (60 mg/kg/d), a BA large-dose group (120 mg/kg/d), a BA small-dose group (60 mg/kg/d), a BL large-dose group (120 mg/kg/d), a BL small-dose group (60 mg/kg/d), a BM large-dose group (120 mg/kg/d), a BM small-dose group (60 mg/kg/d), a BD large-dose group (120 mg/kg/d), a BD small-dose group (60 mg/kg/d), a GB large-dose group (120 mg/kg/d) and a GB small-dose group (60 mg/kg/d). In addition, 8 healthy Wistar rats are taken as a normal control group. Intragastric administration is performed on the rats of each drug group separately according to the above-mentioned doses by 1 mL/100 g body weight, intragastric administration is performed on the rats of the normal control group and the rats of the SHR rat model control group with an equal volume of distilled water, and administration is performed continuously for 8 weeks.
(§2) 2.2 General state: during observation, conditions such as mind, water drinking, food intake, bowel movement, hair color, body weight and range of motion of rats are observed. Irritable degrees of the rats are divided into III levels: a level I means that the rats are free of obvious response when necks of the rats are seized; a level II means that the rats scream and startle when the necks of the rats are seized; and a level III means that the rats bite or rats of same cages frequently fight when the necks of the rats are seized.
(§3) 3.1 Influence on general state of spontaneously hypertensive rats: the rats of the normal control group are normal in food intake, drinking and motion conditions, sensitive in response, healthy and glossy in hair color, good in mental state and free of any unusual response; the rats of the SHR model group gradually present that back hair is fluffy, clustered and dim, the appetite is reduced, the body weight is reduced, the mind is dispirited and irritable, and the rats are prone to the behaviors of intense resisting, attacking and so on during administration and blood pressure detection, and irritable degrees are mostly changed to a level II and a level III from a level I; and after single administration of ginkgolide B and derivatives thereof, behavioral general state observations of rats of each group are free of obvious difference from those of the model control group.

[2] = system: spontaneously hypertensive rats (SHR); test: Caudal artery systolic pressure of spontaneously hypertensive rats, single administration; conditions: x ± s, n = 8
Procedure: as §1
(§4) 2.3 Blood pressure measuring: caudal artery systolic pressure of rats is measured with a Bp-6 noninvasive blood pressure measuring system. Under the condition that the rats are calm, the systolic pressure is continuously measured for 3 times, and the average value of the measured systolic pressure is taken as a pressure measuring result. Observation indexes: (1) single-administration pressure lowering effect: blood pressure of the rats is measured before administration and blood pressure conditions are measured 30 min, 60 min, 90 min and 120 min after first administration; and (2) continuous-administration pressure lowering condition: blood pressure is separately measured 30 min after administration at 1 d, 7 d, 13 d, 19 d, 25 d, 35 d, 49 d and 56 d, the blood pressure is repeatedly measured for 3 times at a day, and the average value of obtained values is taken as a final blood pressure value.

[3] = Weekly body weight of SHR rats
Procedure: as §1, §2, §3

[4] = system: spontaneously hypertensive rats (SHR); test: Caudal artery systolic pressure of spontaneously hypertensive rats, 8 weeks of continuous medication; conditions: x ± s, n = 8
Procedure: as §1, §4

[5] = 60 mg/kg/d intragastric, week 0
[6] = 60 mg/kg/d intragastric, week 1
[7] = 60 mg/kg/d intragastric, week 2
[8] = 60 mg/kg/d intragastric, week 3
[9] = 60 mg/kg/d intragastric, week 4
[10] = 60 mg/kg/d intragastric, week 5
[11] = 60 mg/kg/d intragastric, week 6
[12] = 60 mg/kg/d intragastric, week 7
[13] = 60 mg/kg/d intragastric, week 8
[14] = 120 mg/kg/d intragastric, week 0
[15] = 120 mg/kg/d intragastric, week 1
[16] = 120 mg/kg/d intragastric, week 2
[17] = 120 mg/kg/d intragastric, week 3
[18] = 120 mg/kg/d intragastric, week 4
[19] = 120 mg/kg/d intragastric, week 5
[20] = 120 mg/kg/d intragastric, week 6
[21] = 120 mg/kg/d intragastric, week 7
[22] = 120 mg/kg/d intragastric, week 8

SMILES: CC1C(=O)OC2C(O)C34C5CC(C(C)(C)C)C36C(OC(=O)C6O)OC4(C(=O)O5)C12O (stereo not shown) [GB, ginkgolide B]
- Average dairy food intake [1, 5]: 18.6 g/day
- Average dairy food intake [1, 6]: 20.1^▴ g/d
- Average dairy food intake [1, 7]: 18.9^▴ g/d
- Average dairy food intake [1, 8]: 17.7 g/day
- Average dairy food intake [1, 9]: 18.6^▴ g/d
- Average dairy food intake [1, 10]: 21.7^▴▴ g/d
- Average dairy food intake [1, 11]: 23.5^▴▴ g/d
- Average dairy food intake [1, 12]: 24.2^▴▴ g/d
- Average dairy food intake [1, 13]: 25.4^▴▴ g/d
- Average dairy food intake [1, 14]: 18.3 g/day
- Average dairy food intake [1, 15]: 20.6^▴▴ g/d
- Average dairy food intake [1, 16]: 19.5^▴ g/d
- Average dairy food intake [1, 17]: 20.6^▴▴ g/d
- Average dairy food intake [1, 18]: 21.4^▴▴ g/d
- Average dairy food intake [1, 19]: 22.8^▴▴ g/d
- Average dairy food intake [1, 20]: 24.6^▴▴ g/d
- Average dairy food intake [1, 21]: 26.8^▴▴ g/d
- Average dairy food intake [1, 22]: 28.2^▴▴ g/d
- Systolic pressure ([2]; 60 mg/kg intragastric single administration, 30 min): 160.42 ± 9.56 mmHg
- Systolic pressure ([2]; 60 mg/kg intragastric single administration, 60 min): 153.15 ± 12.51 mmHg
- Systolic pressure ([2]; 60 mg/kg intragastric single administration, 90 min): 155.16 ± 11.26 mmHg
- Systolic pressure ([2]; 60 mg/kg intragastric single administration, 120 min): 159.17 ± 11.63 mmHg
- Systolic pressure ([2]; 60 mg/kg intragastric single administration, before administration): 168.41 ± 12.30 mmHg
- Systolic pressure ([2]; 120 mg/kg intragastric single administration, 30 min): 151.46 ± 16.27 mmHg
- Systolic pressure ([2]; 120 mg/kg intragastric single administration, 60 min): 157.54 ± 17.95 mmHg
- Systolic pressure ([2]; 120 mg/kg intragastric single administration, 90 min): 160.26 ± 16.54 mmHg
- Systolic pressure ([2]; 120 mg/kg intragastric single administration, 120 min): 152.21 ± 18.27 mmHg
- Systolic pressure ([2]; 120 mg/kg intragastric single administration, before administration): 167.49 ± 13.09 mmHg
- Body weight [3, 5]: 230.8 g
- Body weight [3, 6]: 235.6 g
- Body weight [3, 7]: 243.1^▴ g
- Body weight [3, 8]: 250.2 g
- Body weight [3, 9]: 258.9^▴ g
- Body weight [3, 10]: 262.4 g
- Body weight [3, 11]: 268.7^▴ g
- Body weight [3, 12]: 280.6^▴▴ g
- Body weight [3, 13]: 290.1^▴▴ g
- Body weight [3, 14]: 231.0 g
- Body weight [3, 15]: 250.3^▴▴ g
- Body weight [3, 16]: 258.7^▴▴ g
- Body weight [3, 17]: 263.4^▴▴ g
- Body weight [3, 18]: 270.6^▴▴ g
- Body weight [3, 19]: 281.5^▴▴ g
- Body weight [3, 20]: 290.6^▴▴ g
- Body weight [3, 21]: 306.7^▴▴ g
- Body weight [3, 22]: 321.2^▴▴ g
- Systolic pressure ([4]; 60 mg/kg/d intragastric continuous, 1 d, 30 min after administration): 155.67 ± 12.36 mmHg
- Systolic pressure ([4]; 60 mg/kg/d intragastric continuous, 7 d, 30 min after administration): 153.46 ± 10.74 mmHg
- Systolic pressure ([4]; 60 mg/kg/d intragastric continuous, 13 d, 30 min after administration): 156.25 ± 10.84 mmHg
- Systolic pressure ([4]; 60 mg/kg/d intragastric continuous, 19 d, 30 min after administration): 150.68 ± 9.78 mmHg
- Systolic pressure ([4]; 60 mg/kg/d intragastric continuous, 25 d, 30 min after administration): 155.65 ± 10.57 mmHg
- Systolic pressure ([4]; 60 mg/kg/d intragastric continuous, 35 d, 30 min after administration): 154.25 ± 10.74 mmHg
- Systolic pressure ([4]; 60 mg/kg/d intragastric continuous, 49 d, 30 min after administration): 150.56 ± 10.42 mmHg
- Systolic pressure ([4]; 60 mg/kg/d intragastric continuous, 56 d, 30 min after administration): 153.85 ± 9.24 mmHg
- Systolic pressure ([4]; 60 mg/kg/d intragastric continuous, before administration): 168.41 ± 12.30 mmHg
- Systolic pressure ([4]; 120 mg/kg/d intragastric continuous, 1 d, 30 min after administration): 150.63 ± 10.25 mmHg
- Systolic pressure ([4]; 120 mg/kg/d intragastric continuous, 7 d, 30 min after administration): 148.54 ± 9.27 mmHg
- Systolic pressure ([4]; 120 mg/kg/d intragastric continuous, 13 d, 30 min after administration): 141.74 ± 8.26 mmHg
- Systolic pressure ([4]; 120 mg/kg/d intragastric continuous, 19 d, 30 min after administration): 140.95 ± 12.04 mmHg
- Systolic pressure ([4]; 120 mg/kg/d intragastric continuous, 25 d, 30 min after administration): 147.46 ± 9.85 mmHg
- Systolic pressure ([4]; 120 mg/kg/d intragastric continuous, 35 d, 30 min after administration): 142.33 ± 10.38 mmHg
- Systolic pressure ([4]; 120 mg/kg/d intragastric continuous, 49 d, 30 min after administration): 138.79 ± 11.58 mmHg
- Systolic pressure ([4]; 120 mg/kg/d intragastric continuous, 56 d, 30 min after administration): 135.28 ± 7.48 mmHg
- Systolic pressure ([4]; 120 mg/kg/d intragastric continuous, before administration): 167.49 ± 13.09 mmHg
